From patent US10730889B2, “Amido spirocyclic amide and sulfonamide derivatives” (Forma TM, LLC, priority 2012, dated 2020)

These molecules were tested on A2780 cells (assay: In-vitro cell proliferation assay (SRB, 72 hours)). Conditions: Homo sapiens, A2780, 72 h, A2780 cells, 72 hours, SRB; read-out: Cell Proliferation (IC50).
Format: cell-based

SMILES | IC50
O=C(NCC1CC12CCN(C(=O)NC13CC4CC(CC(C4)C1)C3)CC2)c1cc2ccncc2o1 (stereo not drawn) [Example 169, N-[[6-(1-adamantylcarbamoyl)-6-azaspiro[2.5]octan-2-yl]methyl]furo[2,3-c]pyridine-2-carboxamide] | 27.8 nM
O=C(NCC1CC12CCN(C(=O)NCc1ccc(Cl)cc1)CC2)c1cc2ccncc2o1 (stereo not drawn) [Example 170, N-[[6-[(4-chlorophenyl)methylcarbamoyl]-6-azaspiro[2.5]octan-2-yl]methyl]furo[2,3-c]pyridine-2-carboxamide] | 2000 nM
O=C(NCC1CC12CCN(C(=O)NCc1ccccc1Cl)CC2)c1cc2ccncc2o1 (stereo not drawn) [Example 171, N-[[6-[(2-chlorophenyl)methylcarbamoyl]-6-azaspiro[2.5]octan-2-yl]methyl]furo[2,3-c]pyridine-2-carboxamide] | 2000 nM
CCNC(=O)N1CCC2(CC1)CC2CNC(=O)c1cc2ccncc2o1 (stereo not drawn) [Example 172, N-[[6-(ethylcarbamoyl)-6-azaspiro[2.5]octan-2-yl)methyl]furo[2,3-c]pyridine-2-carboxamide] | 2000 nM
O=C(NCC1CC12CCN(C(=O)NCc1ccc(Cl)cc1Cl)CC2)c1cc2ccncc2o1 (stereo not drawn) [Example 173, N-[(6-[(2,4-dichlorophenyl)methylcarbamoyl]-6-azaspiro[2.5]octan-2-yl]methyl]furo[2,3-c]pyridine-2-carboxamide] | 2000 nM
CC1(O)CC(CC(=O)N2CCC3(CC2)CC3CNC(=O)c2cc3ccncc3o2)C1 (stereo not drawn) [Example 174, N-([6-[2-(3-hydroxy-3methylcyclobutyl)acetyl]-6-azaspiro[2.5]octan-1-yl]methyl)furo[2,3-c]pyridine-2-carboxamide] | 197 nM
O=C(Cc1ccccn1)N1CCC2(CC1)CC2CNC(=O)N1Cc2ccncc2C1 (stereo not drawn) [Example 176, N-[[6-[2-(2-pyridyl)acetyl]-6-azaspiro[2.5]octan-2-yl]methyl] 1,3-dihydropyrrolo[3,4-c]pyridine-2-carboxamide] | 34.1 nM
O=C(Cc1cccnc1)N1CCC2(CC1)CC2CNC(=O)N1Cc2ccncc2C1 (stereo not drawn) [Example 177] | 34.4 nM
N#Cc1cccc(CC(=O)N2CCC3(CC2)CC3CNC(=O)N2Cc3ccncc3C2)c1 (stereo not drawn) [Example 178, N-[[6-(2-(3-cyanophenyl)acetyl]-6-azaspiro[2.5]octan-2-yl]methyl]-1,3-dihydropyrrolo(3,4-c]pyridine-2-carboxamide] | 32.3 nM
O=C(NCC1CC12CCN(C(=O)c1ccc(-n3cncn3)cc1)CC2)c1cc2ccncc2o1 (stereo not drawn) [Example 179, N-[[6-[4-(1,2,4-triazol-1-yl)benzoyl]-6-azaspiro[2.5]octan-2-yl]methyl]furo[2,3-c]pyridine-2-carboxamide] | 25.4 nM
Cc1nccn1CC(=O)N1CCC2(CC1)CC2CNC(=O)c1cc2ccncc2o1 (stereo not drawn) [Example 180, N-[[6-[2-(2-methylimidazol-1-yl)acetyl]-6-azaspiro[2.5]octan-2-yl]methyl]furo[2,3-c]pyridine-2-carboxamide] | 2460 nM
Cc1nn(C)c(C)c1C(=O)N1CCC2(CC1)CC2CNC(=O)c1cc2ccncc2o1 (stereo not drawn) [Example 181, N-[[6-(1,3,5-trimethylpyrazole-4-carbonyl)-6-azaspiro[2.5]octan-2-yl]methyl]furo[2,3-c]pyridine-2-carboxamide] | 3.31 nM
CC(C)(C)NC(=O)N1CCC2(CC1)CC2CNC(=O)c1cc2ccncc2o1 (stereo not drawn) [Example 182, N-[[6-(tert-butylcarbamoyl)-6-azaspiro[2.5]octan-2-yl]methyl]furo[2,3-c]pyndine-2-carboxamide] | 2000 nM
CC(C)NC(=O)N1CCC2(CC1)CC2CNC(=O)c1cc2ccncc2o1 (stereo not drawn) [Example 183, N-[[6-(isopropylcarbamoyl)-6-azaspiro[2.5]octan-2-yl]methyl]furo[2,3-c]pyridine-2-carboxamide] | 2000 nM
O=C(NCC1CC12CCN(C(=O)NCC1CCCCC1)CC2)c1cc2ccncc2o1 (stereo not drawn) [Example 184, N-[[6-(cyclohexylmethylcarbamoyl)-6-azaspiro[2.5]octan-2-yl]methyl]furo[2,3-c]pyridine-2-carboxamide] | 2000 nM
CCCNC(=O)N1CCC2(CC1)CC2CNC(=O)c1cc2ccncc2o1 (stereo not drawn) [Example 185, N-[[6-(propylcarbamoyl)-6-azaspiro[2.5]octan-2-yl]methyl]furo[2,3-c]pyridine-2-carboxamide] | 2000 nM
O=C(NCC1CC12CCN(C(=O)NC1CCCCC1)CC2)c1cc2ccncc2o1 (stereo not drawn) [Example 186, N-[[6-(cyclohexylcarbamoyl)-6-azaspiro[2.5]octan-2-yl)methyl]furo[2,3-c]pyridine-2-carboxamide] | 732 nM
O=C(NCC1CC12CCN(C(=O)Nc1ccccc1)CC2)c1cc2ccncc2o1 (stereo not drawn) [Example 187, N-[[6-(phenylcarbamoyl)-6-azaspiro[2.5]octan-2-yl]methyl]furo[2,3-c]pyridine-2-carboxamide] | 2460 nM

SMILES | IC50
CC(C)N1CCC(CC(=O)N2CCC3(CC2)CC3CNC(=O)N2Cc3ccncc3C2)CC1 (stereo not drawn) [Example 188, N-[[6-[2-(1-isopropyl-4-piperidyl)acetyl]-6-azaspiro[2.5]octan-2-yl]methyl]-1,3-dihydropyrrolo[3,4-c]pyridine-2-carboxamide] | 45.3 nM
O=C(Cc1ccncc1)N1CCC2(CC1)CC2CNC(=O)N1Cc2ccncc2C1 (stereo not drawn) [Example 190, N-[[6-[2-(4-pyridyl)acetyl]-6-azaspiro[2.5]octan-2-yl]methyl]-1,3-dihydropyrrolo[3,4-c]pyridine-2-carboxamide] | 50.7 nM
N#CCC(=O)N1CCC2(CC1)CC2CNC(=O)N1Cc2ccncc2C1 (stereo not drawn) [Example 191, N-[[6-(2-cyanoacetyl)-6-azaspiro[2.5]octan-2-yl]methyl]-1,3-dihydropyrrolo[3,4-c]pyridine-2-carboxamide] | 1040 nM
CC(C)(C)OC(=O)N1CCC2(CC1)CC(CNC(=O)c1cc3cnccc3[nH]1)C2 [Example 193, tert-butyl 2-[(1H-pyrrolo[3,2-c]pyridine-2-carbonylamino)methyl]-7-azaspiro[3.5]nonane-7-carboxylate] | 2000 nM
CC(C)(C)OC(=O)N1CCC2(CC1)CC(CNC(=O)c1cc3ccncc3o1)C2 [Example 194, tert-butyl 2-[(furo[2,3-c]pyridine-2-carbonylamino)methyl]-7-azaspiro[3.5]nonane-7-carboxylate] | 2000 nM
CC1(CC(=O)N2CCC3(CC2)CC3CNC(=O)c2cc3ccncc3o2)COC1 (stereo not drawn) [Example 195, N-[[6-[2-(3-methyloxetan-3-yl)acetyl]-6-azaspiro[2.5]octan-2-yl]methyl]furo[2,3-c]pyridine-2-carboxamide] | 218 nM
O=C(CC1CCCCC1)N1CCC2(CC1)CC2CNC(=O)N1Cc2ccncc2C1 (stereo not drawn) [Example 196, N-[[6-(2-cyclohexylacetyl)-6-azaspiro[2.5]octan-2-yl]methyl]-1,3-dihydropyrrolo[3,4-c]pyridine-2-carboxamide] | 3.67 nM
O=C(CN1CCOCC1)N1CCC2(CC1)CC2CNC(=O)N1Cc2ccncc2C1 (stereo not drawn) [Example 198, N-[[6-(2-morpholinoacetyl)-6-azaspiro[2.5]octan-2-yl]methyl]-1,3-dihydropyrrolo[3,4-c]pyridine-2-carboxamide] | 61.8 nM
CC(C)(C)OC(=O)N1CCC2(CC1)CC(CNC(=O)N1Cc3ccncc3C1)C2 [Example 200, tert-butyl 2-[(1,3-dihydropyrrolo[3,4-c]pyridine-2-carbonylamino)methyl]-7-azaspiro[3.5]nonane-7-carboxylate] | 24.7 nM
O=C(Cc1cc(F)cc(F)c1)N1CCC2(CC1)CC2CNC(=O)N1Cc2ccncc2C1 (stereo not drawn) [Example 201, N-[[6-[2-(3,5-difluorophenyl)acetyl]-6-azaspiro[2.5]octan-2-yl]methyl]-1,3-dihydropyrrolo[3,4-c]pyridine-2-carboxamide] | 27.9 nM
O=C(Cc1cccc(C(F)(F)F)c1)N1CCC2(CC1)CC2CNC(=O)N1Cc2ccncc2C1 (stereo not drawn) [Example 202, N-[[6-[2-[3-(trifluoromethyl]phenyl]acetyl]-6-azaspiro[2.5]octan-2-yl]methyl]-1,3-dihydropyrrolo[3,4-c]pyridine-2-carboxamide] | 28.2 nM
CC(C)(C)NC(=O)N1CCC2(CC1)CC2CNC(=O)c1cc2cnccc2[nH]1 (stereo not drawn) [Example 203, N-[[6-(tert-butylcarbamoyl)-6-azaspiro[2.5]octan-2-yl]methyl]-1H-pyrrolo[3,2-c]pyridine-2-carboxamide] | 2000 nM
COC(=O)C(C)(C)OC(=O)N1CCC2(CC1)CC2CNC(=O)c1cc2ccncc2o1 (stereo not drawn) [Example 205, (2-methoxy-1,1-dimethyl-2-oxo-ethyl) 2-[(furo[2,3-c]pyridine-2-carbonylamino)methyl]-6-azaspiro[2.5]octane-6-carboxylate] | 130 nM
N#Cc1cccc(CC(=O)N2CCC3(CC2)CC3CNC(=O)c2cc3cnccc3[nH]2)c1 (stereo not drawn) [Example 206, N-[[6-[2-(3-cyanophenyl)acetyl]-6-azaspiro[2.5]octan-2-yl]methyl]-1H-pyrrolo[3,2-c]pyridine-2-carboxamide] | 2000 nM
O=C(NCC1CC12CCN(C(=O)Nc1ccccc1)CC2)N1Cc2ccncc2C1 (stereo not drawn) [Example 208, N-[[6-(phenylcarbamoyl)-6-azaspiro[2.5]octan-2-yl]methyl]-1,3-dihydropyrrolo[3,4-c]pyridine-2-carboxamide] | 26.1 nM
O=C(NCc1ccccc1)N1CCC2(CC1)CC2CNC(=O)N1Cc2ccncc2C1 (stereo not drawn) [Example 210, N-[[6-(benzylcarbamoyl)-6-azaspiro[2.5]octan-2-yl]methyl]-1,3-dihydropyrrolo[3,4-c]pyridine-2-carboxamide] | 316 nM
O=C(NCC1CC12CCN(S(=O)(=O)Cc1ccccc1)CC2)N1Cc2ccncc2C1 (stereo not drawn) [Example 211, N-[(6-benzylsulfonyl-6-azaspiro[2.5]octan-2-yl)methyl]-1,3-dihydropyrrolo[3,4-c]pyridine-2-carboxamide] | 131 nM

Same assay, conditions: Homo sapiens; A2780 cells, 72 hours, SRB; read-out: Cell Proliferation (IC50)

SMILES | IC50
N#Cc1ccc(CC(=O)N2CCC3(CC2)CC3CNC(=O)N2Cc3ccncc3C2)cc1 (stereo not drawn) [Example 207, N-[[6-[2-(4-cyanophenyl)acetyl]-6-azaspiro[2.5]octan-2-yl]methyl]-1,3-dihydropyrrolo[3,4-c]pyridine-2-carboxamide] | 136 nM
